Test results: PubChem BioAssay AID290 (DTP/NCI, 2004)
Records with an inconclusive call do not appear.

Test system: mice, P1798 lymphosarcoma sc, survival or tumor weight T/C
Experiment: NCI In Vivo Anticancer Drug Screen. Data for tumor model P1798 Lymphosarcoma (subcutaneous) in unknown mice
Settings: endpoint: mean tumor weight, higher = larger tumour
Method: The antitumor activity of compounds was measured in mice bearing transplantable tumors. Survival or tumor size were measured and the results are expressed as the measurement made in the treated group (T) divided by the measurement made in the vehicle treated control group (C). The tumor model used in this assay is P1798 Lymphosarcoma (subcutaneous) in unknown mice

[1] = dose: 62.5 mg/kg/injection, schedule: Q01DX010 (ip), vehicle: carboxymethylcellulose (CMC)
[2] = dose: 12.5 mg/kg/injection, schedule: Q01DX010 (ip), vehicle: carboxymethylcellulose (CMC)
[3] = dose: 5.0 mg/kg/injection, schedule: Q01DX010 (ip), vehicle: carboxymethylcellulose (CMC)

CN(/N=N/N(C)c1ccccc1)c1ccccc1
T/C (dose: 15.6 mg/kg/injection, schedule: Q01DX010 (ip), vehicle: carboxymethylcellulose (CMC)): 59 % of control | T/C (dose: 31.3 mg/kg/injection, schedule: Q01DX010 (ip), vehicle: carboxymethylcellulose (CMC)): 44 % of control | T/C [1]: 39 % of control | T/C (dose: 125.0 mg/kg/injection, schedule: Q01DX010 (ip), vehicle: carboxymethylcellulose (CMC)): 58 % of control

S=P(N1CCOCC1)(N1CC1)N1CC1
T/C (dose: 6.25 mg/kg/injection, schedule: Q01DX010 (ip), vehicle: carboxymethylcellulose (CMC)): 82 % of control | T/C [2]: 60 % of control

CC(C)=C(Br)CC[C@@H](C)[C@H]1CC[C@@]2(C)C3=C(CC[C@]12C)[C@@]1(C)CC[C@H](O)C(C)(C)[C@@H]1CC3
T/C (dose: 100.0 mg/kg/injection, schedule: Q01DX011 (sc), vehicle: steriod suspending solution): 151 % of control | T/C (dose: 200.0 mg/kg/injection, schedule: Q01DX011 (sc), vehicle: steriod suspending solution): 186 % of control

C[C@@H]1C[C@@H]([C@H](O)CC2CC(=O)NC(=O)C2)C(=O)[C@@H](C)C1
T/C (dose: 1.6 mg/kg/injection, schedule: Q01DX010 (ip), vehicle: water): 86 % of control | T/C (dose: 3.1 mg/kg/injection, schedule: Q01DX010 (ip), vehicle: water): 96 % of control | T/C (dose: 6.3 mg/kg/injection, schedule: Q01DX010 (ip), vehicle: water): 96 % of control | T/C (dose: 12.5 mg/kg/injection, schedule: Q01DX010 (ip), vehicle: water): 98 % of control

CC12C=CC(=O)C=C1CCC1C3CCC(O)(C(=O)CO)C3(C)CC(O)C12F (centres undefined)
T/C (dose: 3.0 mg/kg/injection, schedule: Q01DX010 (sc), vehicle: steriod suspending solution): 85 % of control | T/C (dose: 6.0 mg/kg/injection, schedule: Q01DX010 (sc), vehicle: steriod suspending solution): 58 % of control | T/C (dose: 12.0 mg/kg/injection, schedule: Q01DX010 (sc), vehicle: steriod suspending solution): 56 % of control

N#[N+]c1cnc([O-])[nH]c1=O
T/C [3]: 105 % of control | T/C (dose: 10.0 mg/kg/injection, schedule: Q01DX010 (ip), vehicle: carboxymethylcellulose (CMC)): 47 % of control

O=c1[nH]c2cc(Cl)c(Cl)cc2o1
T/C [2]: 78 % of control | T/C (dose: 25.0 mg/kg/injection, schedule: Q01DX010 (ip), vehicle: carboxymethylcellulose (CMC)): 76 % of control | T/C (dose: 50.0 mg/kg/injection, schedule: Q01DX010 (ip), vehicle: carboxymethylcellulose (CMC)): 117 % of control | T/C (dose: 100.0 mg/kg/injection, schedule: Q01DX010 (ip), vehicle: carboxymethylcellulose (CMC)): 61 % of control

NC(Cc1ccc(N(CCCl)CCCl)cc1)C(=O)O (centres undefined)
T/C (dose: 0.5 mg/kg/injection, schedule: Q01DX010 (ip), vehicle: saline): 86 % of control | T/C (dose: 0.63 mg/kg/injection, schedule: Q01DX010 (ip), vehicle: carboxymethylcellulose (CMC)): 117 % of control | T/C (dose: 1.0 mg/kg/injection, schedule: Q01DX010 (ip), vehicle: saline): 67 % of control | T/C (dose: 1.25 mg/kg/injection, schedule: Q01DX010 (ip), vehicle: carboxymethylcellulose (CMC)): 110 % of control | T/C (dose: 1.25 mg/kg/injection, schedule: Q01DX010 (ip), vehicle: saline): 89 % of control | T/C (dose: 2.0 mg/kg/injection, schedule: Q01DX010 (ip), vehicle: saline): 77 % of control | T/C (dose: 4.0 mg/kg/injection, schedule: Q01DX010 (ip), vehicle: saline): 60 % of control | T/C [3]: 40 % of control | T/C (dose: 5.0 mg/kg/injection, schedule: Q01DX010 (ip), vehicle: saline): 36 % of control | T/C (dose: 10.0 mg/kg/injection, schedule: Q01DX010 (ip), vehicle: saline): 5 % of control

CN(C)c1nc(N(C)C)nc(N(C)C)n1
T/C [1]: 119 % of control | T/C (dose: 250.0 mg/kg/injection, schedule: Q01DX010 (ip), vehicle: carboxymethylcellulose (CMC)): 88 % of control | T/C (dose: 500.0 mg/kg/injection, schedule: Q01DX010 (ip), vehicle: carboxymethylcellulose (CMC)): 106 % of control
